Laboratory results reported in US7253286B2, “Nitrogen-containing aromatic derivatives” (Eisai Co., Ltd, priority 2000, dated 2007).

Experiments:
[1] = system: Human Umbilical Vein Endothelial Cells (HUVECs); assay: Inhibition against sandwich tube formation by vascular endothelial cells in response to stimulation by VEGF; format: cell-based; conditions: HUVEC in collagen gel sandwich, stimulation by VEGF (25 ng/ml VEGF and 10 ng/ml EGF), 4th day, total tube length, read-out: IC50 (concentration required for 50% inhibition of tube formation)
Description: Inhibition Against Sandwich Tube Formation by Vascular Endothelial Cells in Response to Stimulation by Angiogenic Factor
Human Umbilical Vein Endothelial Cells (HUVECS) were isolated by the same method as in Pharmacological Test Example 1, and were cultured in a 5% CO2 incubator (37° C.) using EGM-2 medium (purchased from Clonetics Corp.) until the cells reached confluency.
An ice-cooled mixture of collagen: 5× RPMI 1640: reconstitution buffer (all purchased from Nitta Gelatin, Inc.) at 7:2:1 was dispensed at 0.4 ml into each well of a 24-well plate, and then stationed for 40 minutes in a 5% CO2 incubator (37° C.) for gelling. The HUVECs were recovered using trypsin-EDTA and then suspended in human endothelial serum free medium (SFM, purchased from GIBCO BRL) containing added angiogenic factors [20 ng/ml FGF2 (purchased from GIBCO BRL) and 10 ng/ml EGF (purchased from GIBCO BRL), or 25 ng/ml VEGF (purchased from Wako Pure Chemical Industries Co., Ltd.) and 10 ng/ml EGF, or 30 ng/ml HGF (purchased from R&D Co.) and 10 ng/ml EGF], and the cell suspension was added at 0.4 ml to each well (with the cell counts differing slightly according to the HUVEC lot), and cultured overnight in a 5% CO2 incubator (37° C.). On the following day, the medium on the upper layer was aspirated off, and then 0.4 ml of an ice-cooled mixture of collagen: 5× RPMI 1640: reconstitution buffer (all purchased from Nitta Gelatin, Inc.) at 7:2:1 was superposed into each well prior to stationing for 4 hours in a 5% CO2 incubator (37° C.) for gelling. After adding 1.5 ml of an SFM solution containing each of the aforementioned angiogenic factors and a diluted test substance onto the upper layer, culturing was performed in a 5% CO2 incubator (37° C.). Upon aspirating off the culture supernatant in each well on the 4th day after addition of the test substance, 0.4 ml of a 3.3 mg/ml MTT solution dissolved in PBS (purchased from Sigma Corp.) was added to each well and culturing was performed for approximately 2 hours in a 5% CO2 incubator (37° C.). The tubes formed in the collagen gel of each well were stained by the MTT, the tube images were loaded into a computer (Macintosh), and the total length of the tubes was determined by image analysis software “MacScope” (purchased from Mitani Corp.). The ratio of the total length of the tubes formed in the well containing the test substance with respect to the total length of the tubes formed in the well containing no test substance was expressed as a percentage, and the concentration of each test substance required for 50% inhibition of tube formation (IC50) was determined from the ratio value.

[2] = system: Human Umbilical Vein Endothelial Cells (HUVECs); assay: Inhibition against invasive tube formation by vascular endothelial cells in response to stimulation by angiogenic factor mixture; format: cell-based; set-up: key: the number of tubes formed in the absence of the test substance was designated as +++; scored on the 5-level scale of +++, ++, +, +/−, −; scored on the 5-level scale of +++, ++, +, +/−, −; scored on the 5-level scale of +++, ++, +, +/−, −; − was assigned if absolutely no tubes formed; conditions: HUVEC on fibrin gel, EGF/FGF2/VEGF/HGF/TNF-α mixture, 6th day, MTT staining; for number of tubes formed in the fibrin gel (score) at 0.01 μM: test substance 0.01 μM; for number of tubes formed in the fibrin gel (score) at 0.1 μM: test substance 0.1 μM; for number of tubes formed in the fibrin gel (score) at 1.0 μM: test substance 1.0 μM
Description: Inhibition Against Invasive Tube Formation by Vascular Endothelial Cells in Response to Stimulation by Angiogenic Factor Mixture
Human Umbilical Vein Endothelial Cells (HUVECs) were isolated according to a reported method (Shinseikagaku Jikken Koza [New Biochemistry Experiment Lectures], “Saibo Baiyo Gijutsu” [Cell Culturing Techniques], p.197–202), and were cultured in a 5% CO2 incubator (37° C.) using EGM-2 medium (purchased from Clonetics Corp.) until the cells reached confluency. After adding 0.4 ml of bovine fibrinogen (purchased from Sigma Co.) to the inner well of a Transwell culturing plate (purchased from Coster Inc.), it was hardened with 0.7 units/ml of thrombin (purchased from Sigma Co.). The HUVECs were recovered using trypsin-EDTA and then suspended in human endothelial serum free medium basal growth medium (hereinafter abbreviated as SFM, purchased from GIBCO BRL), and 0.4 ml of the cell suspension (1.4×10^5 cells) was seeded onto the hardened fibrin gel and cultured for approximately 4 hours in a 5% CO2 incubator (37° C.). After 4 hours, there was added to the outer chamber of the Transwell 1.5 ml of an SFM solution containing a mixture of angiogenic factors {10 ng/ml EGF (purchased from GIBCO BRL), 30 ng/ml FGF2 (purchased from GIBCO BRL), 75 ng/ml VEGF (purchased from Wako Pure Chemical Industries Co., Ltd.), 50 ng/ml HGF (purchased from R&D Co.) and 7.5 ng/ml TNF-α (purchased from Genzyme Corp.) [The concentrations of the angiogenic factors differed slightly according to the HUVEC lot.]} and a diluted test substance, and culturing was carried out in a 5% CO2 incubator (37° C.). On the 2nd and 4th days after adding the test substance, the medium was exchanged with 1.5 ml of freshly prepared SFM solution containing the angiogenic factor mixture and test substance. Upon aspirating off the culture supernatant in the inner well on the 6th day after the initial addition of the test substance, 0.4 ml of a 3.3 mg/ml MTT solution dissolved in PBS (purchased from Sigma Corp.) was added and culturing was performed for approximately 1 hour in a 5% CO2 incubator (37° C.). The number of tubes formed in the fibrin gel stained with MTT was scored based on microscope observation. Specifically, the number of tubes formed in the absence of the test substance was designated as +++, while − was assigned if absolutely no tubes formed. The number of tubes formed in the presence of the test substance was scored on the 5-level scale of +++, ++, +, +/−, − to evaluate the strength of inhibition of the test substance.

SMILES	IC50 [1]	number of tubes formed in the fibrin gel (score) at 0.01 μM [2]	number of tubes formed in the fibrin gel (score) at 0.1 μM [2]	number of tubes formed in the fibrin gel (score) at 1.0 μM [2]
CCN(CC)CCCOc1cc2nccc(Oc3ccc(NC(=O)Nc4ccccc4)cc3)c2cc1C#N [Example 75, N-(4-(6-Cyano-7-(3-(diethylamino)propoxy)-4-quinolyloxy)phenyl)-N′-phenylurea]	1.4 nM	+++	+/−	−
COc1cc2nccc(Sc3ccc(NC(=O)Nc4ccc(F)cc4)s3)c2cc1C(N)=O [Example 245, 4-(5-(3-(4-Fluorophenyl)ureido)thiophen-2-ylsulfanyl)-7-methoxyquinoline-6-carboxamide]		+/−	−	−
COc1cc2nccc(Oc3ccc(NC(=O)NC4CC4)c(Cl)c3)c2cc1C(=O)NCCF [Example 415, N6-(2-Fluoroethyl)-4-(3-chloro-4-(((cyclopropylamino)carbonyl)amino)phenoxy)-7-methoxy-6-quinolinecarboxamide]	3.8 nM	+/−	−	−
O=C(Nc1cc(Oc2ccc3c(ccn3C(=O)NC3CC3)c2)ccn1)C1CC1 [Example 212, N1-Cyclopropyl-5-({2-[(cyclopropylcarbonyl)amino]-4-pyridyl}oxy)-1H-1-indolecarboxamide]		+/−	−	−
CCN(CC)CCCOc1cc2nccc(Oc3ccc4c(ccn4C(=O)NC4CC4)c3)c2cc1C#N [Example 298, 5-[6-Cyano-7-(3-diethylaminopropoxy)quinolin-4-yloxy]indole-1-carboxylic acid cyclopropylamide]	0.7 nM	+/−	−	−
COc1cc2nccc(Oc3ccc(NC(=O)NC4CC4)c(Cl)c3)c2cc1C(N)=O [Example 368, 4-(3-Chloro-4-(cyclopropylaminocarbonyl)aminophenoxy)-7-methoxy-6-quinolinecarboxamide]	5.4 nM	−	−	−
O=C(CCCN1CCC(O)CC1)Nc1cc(Oc2ccc3c(ccn3C(=O)Nc3ccccc3)c2)ccn1 [Example 189, N1-Phenyl-5-[(2-{[4-(4-hydroxypiperidino)butanoyl]amino}-4-pyridyl)oxy]-1H-1-indolecarboxamide]	0.3 nM	+/−	−	−
N#Cc1cc2c(Oc3ccc(NC(=O)Nc4ccc(F)cc4F)c(F)c3)ccnc2cc1OCc1ccccc1 [Example 81, N-(4-(6-Cyano-7-benzyloxy-4-quinolyl)oxy-2-fluorophenyl)-N′-(2,4-difluorophenyl)urea]	1.8 nM	++	−	−
CS(=O)(=O)c1cccc(NC(=O)Nc2ccc(Oc3ccnc4cc(OCCCN5CCOCC5)c(C#N)cc34)cc2)c1 [Example 74, N-(4-(6-Cyano-7-(3-(4-morpholino)propoxy)-4-quinolyl)oxyphenyl)-N′-(3-(methylsulfonyl)phenyl)urea]	5.9 nM	++	−	−
COc1ccc(NC(=O)Nc2ccc(Oc3ccnc4cc(OCCOCCO)c(C#N)cc34)cc2)cc1 [Example 72, N-(4-(6-Cyano-7-(2-(2-hydroxyethoxy)ethoxy)-4-quinolyl)oxyphenyl)-N′-(4-methoxyphenyl)urea]	22 nM	+++	−	−
CN1CCC(COc2cc3nccc(Oc4ccc(NC(=O)NC5CC5)c(Cl)c4)c3cc2C#N)CC1 [Example 422, N-(2-Chloro-4-((6-cyano-7-((1-methyl-4-piperidyl)methoxy)-4-quinolyl)oxy)phenyl)-N′-cyclopropylurea]	4.8 nM	+	−	−
CCN1CCN(CCCOc2cc3nccc(Oc4ccc(NC(=O)Nc5ccc(OC)cc5)cc4)c3cc2C#N)CC1 [Example 53, N-(4-(6-Cyano-7-(3-(1-(4-ethyl)piperazino)propoxy)-4-quinolyl)oxyphenyl)-N′-(4-methoxyphenyl)urea]	9.9 nM	+++	+/−	−
O=C(Nc1ccc(Oc2ncnc3[nH]c(-c4ccccc4)cc23)cc1)Nc1cccc(F)c1 [Example 172, 1-(3-Fluorophenyl)-3-[4-(6-phenyl-7H-pyrrolo[2,3-d]pyrimidin-4-yloxy)phenyl]urea]		+	+/−	+/−
CCN(CC)CCOc1ccc(-c2cc3c(Oc4ccc(NC(=O)NC5CC5)c(Cl)c4)ncnc3[nH]2)cc1 [Example 153, 1-(2-Chloro-4-{6-[4-(2-diethylaminoethoxy)-phenyl]-7H-pyrrolo[2,3-d]pyrimidin-4-yloxy}phenyl)-3-cyclopropylurea]	0.02 nM	+/−	−	−
